Data as given in patent US20260294874A1, “COMPOSITIONS COMPRISING MODULATORS OF RIBONUCLEOPROTEIN GRANULE FORMATION AND DISSOLUTION AND METHODS OF USE THEREOF” (University of Virginia Patent Foundation, priority 2023, published 2026).
“And” between values parts separate entries of the source, which are not always exact repeats. Equal entries are not always repeated. “Also recorded” adds a separate entry of the source. Where two headings read alike, the source gives them in different places.

Biological target: T1, recombinant EDC3 (Homo sapiens, UniProt Q96F86)
T1 construct: FLAG; expressed in transfected cells; host or cells: HEK293T
T1 sequence (Q96F86 1-508): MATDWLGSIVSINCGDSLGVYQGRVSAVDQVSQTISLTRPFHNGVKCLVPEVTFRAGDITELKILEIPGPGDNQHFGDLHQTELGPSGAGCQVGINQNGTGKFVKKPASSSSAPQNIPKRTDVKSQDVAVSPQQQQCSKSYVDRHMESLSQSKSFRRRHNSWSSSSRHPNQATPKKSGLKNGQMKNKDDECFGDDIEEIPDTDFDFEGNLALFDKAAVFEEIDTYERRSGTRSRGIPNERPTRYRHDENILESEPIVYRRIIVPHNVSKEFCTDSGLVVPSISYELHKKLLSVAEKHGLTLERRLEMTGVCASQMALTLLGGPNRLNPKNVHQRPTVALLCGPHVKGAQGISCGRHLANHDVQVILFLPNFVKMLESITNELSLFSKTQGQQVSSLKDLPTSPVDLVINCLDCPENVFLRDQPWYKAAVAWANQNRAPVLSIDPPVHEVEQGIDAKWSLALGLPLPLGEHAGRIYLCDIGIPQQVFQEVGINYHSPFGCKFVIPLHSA
Test: Competitive gel-based ABPP, HHS-465 probe labeling of recombinant EDC3 in HEK293T cells
Assay type: cell-based
Details: for inhibition of HHS-465 probe labeling of recombinant EDC3 (in words): 25 μM, 2 h (FIG. 4F), 0.1-100 μM for concentration dependence (FIG. 4D)
Excerpt: FIGS. 4A-4F. Discovery of a SuTEx ligand for the hyper-reactive EDC3 Y475 site. (FIG. 4A) Overlap of liganded sites from SuTEx PB modulators with reported RNA granule induction-sensitive lysine and tyrosine sites (RISKYs; Ciancone et al., 2022). The five overlapping sites were further compared to previously reported hyper-RISKY sites (Ciancone et al., 2022) resulting in the identification of the tyrosine-475 (Y475) site on EDC3. (FIG. 4B) Representative immunofluorescence images depicting decreased PBs and increased SGs in AHL-030-treated cells under stress conditions. EKT235 is shown as a negative control. See FIGS. 8 and 9 for additional details. (FIG. 4C) Representative MS1 extracted ion chromatograms (EICs) showing EDC3 Y475 (i.e., amino acid 2 of the peptide sequence […]; SEQ ID NO: 1, which corresponds to amino acids 474-500 of the human enhancer of mRNA-decapping protein 3 isoform 1 polypeptide of GENBANK® Accession No. NP_001135915.1) is liganded by AHL-030 but not EKT235 [SILAC ratio or SR>2 for DMSO vehicle (light, red)/SuTEx fragment ligand (heavy, blue) treatment conditions]. Enrichment (HHS-465/DMSO) and 1:1 (HHS-465/HHS-465) controls are shown. SRs are calculated as the integrated area under the curve ratio of light-to-heavy peptide. Data are representative of n=2-3 biologically independent replicates. […] EDC3-expressing HEK293T cells were pretreated with varying concentrations of AHL-030 (0.1-100 μM, 2 hours) followed by lysis and probe labeling of soluble proteomes with HHS-465 (100 μM, 1 h, RT). The in situ IC50 for EDC3 probe labeling inhibition by AHL-030 was estimated to be ~6 μM. […] Data shown are mean±SEM and representative of n=3 biologically independent replicates. […] Western blots comparing recombinant expression of EDC3 (α-FLAG) and loading controls (α-GAPDH) are shown. Data are representative of n=2 biologically independent replicates.
Among the candidate PB-modulating SuTEx compounds, we focused on AHL-030 because of its PB-inhibitory, SG-enhancing activity in stressed cells and ability to ligand the EDC3 Y475 site (SR >2; FIGS. 4B and 4C). Importantly, we identified a restricted number of reproducibly liganded sites (7 in total) in addition to EDC3 Y475 in chemoproteomic profiling studies of AHL-030 (FIG. 12). We further confirmed AHL-030 as an EDC3 ligand using competitive activity-based protein profiling (ABPP; Grams & Hsu, 2022). Recombinant EDC3-expressing HEK293T cells were treated with a panel of RNP granule modulators including AHL-030 and the negative control compound EKT235 to evaluate structure-activity relationships (SAR, 25 μM compounds, 2 h). Cells were lysed and soluble proteomes labeled with HHS-465 (100 μM, 1 h, RT) followed by CuAAC with rhodamine-azide, SDS-PAGE and in-gel fluorescence scanning. […] Using the in vitro IC50, we calculated the lipophilic efficiency (LipE) of AHL-030 to be ~7, which falls in the range of acceptable lipophilicity in relation to potency (Leeson & Springthorpe, 2007).

| inhibition of HHS-465 probe labeling of recombinant EDC3 (in words) (HHS-465 100 μM, 1 h, RT) | pIC50/EC50: pIC50 (AHL-030, used for LipE) | IC50 (IC50 (AHL-030), EDC3 probe labeling, read-out: IC50/EC50 (M): IC50) | IC50 (in situ, 0.1-100 μM, 2 h, HHS-465 100 μM, 1 h, RT, n=3, read-out: IC50 for EDC3 probe labeling inhibition) | Structure (SMILES) |
| --- | --- | --- | --- | --- |
| largely inactive |  |  |  | N#Cc1ccc(S(=O)(=O)n2cc(-c3cccc(Cl)c3)nn2)cc1 [EKT231, 4-((4-(3-Chlorophenyl)-1H-1,2,3-triazol-1-yl)sulfonyl)benzonitrile] |
| largely inactive |  |  |  | CC(C)c1cc(C(C)C)c(S(=O)(=O)n2cc(-c3ccc(C(F)(F)F)cc3)nn2)c(C(C)C)c1 [AHL-003] |

| Structure (SMILES) | inhibition of HHS-465 probe labeling of recombinant EDC3 (in words) (HHS-465 100 μM, 1 h, RT) | pIC50/EC50: pIC50 (AHL-030, used for LipE) | IC50 (IC50 (AHL-030), EDC3 probe labeling, read-out: IC50/EC50 (M): IC50) | IC50 (in situ, 0.1-100 μM, 2 h, HHS-465 100 μM, 1 h, RT, n=3, read-out: IC50 for EDC3 probe labeling inhibition) |
| --- | --- | --- | --- | --- |
| COc1ccc(S(=O)(=O)n2cc(CS(C)(=O)=O)nn2)cc1 [AHL-030, 1-((4-Methoxyphenyl)sulfonyl)-4-((methylsulfonyl)methyl)-1H-1,2,3-triazole] | blocked HHS-465 probe labeling of EDC3 in a concentration-dependent manner; also recorded: concentration-dependent binding to recombinant EDC3; also recorded: competition of HHS-465 probe labeling | 5.3 | 5.6e-06 M | 6e-06 M and ~6e-06 M |
